Laboratory results taken from patent US8178534B2, “cMET inhibitors” (Takeda Pharmaceutical Company Limited, priority 2008, dated 2012).
Where a name gives a salt, the structure may show the parent alone.

Experiments:
[1] = target: T1, cMET enzyme (amino acids 1023-1360) (Homo sapiens, UniProt P08581); assay: Determination of inhibition of cMET (capillary electrophoresis, phosphorylated peptide product); format: biochemical; settings: 1.2 nM cMET, 50 μM ATP, 2 μM FL-2 peptide, 2 hours room temperature
T1 construct: The cMET enzyme (amino acids 1023-1360) nominally at 24 μM was held at −80° C. until use; His tag (N, cleaved yes); made in house; host or cells: Sf9 cells
T1 sequence (P08581 1023-1360): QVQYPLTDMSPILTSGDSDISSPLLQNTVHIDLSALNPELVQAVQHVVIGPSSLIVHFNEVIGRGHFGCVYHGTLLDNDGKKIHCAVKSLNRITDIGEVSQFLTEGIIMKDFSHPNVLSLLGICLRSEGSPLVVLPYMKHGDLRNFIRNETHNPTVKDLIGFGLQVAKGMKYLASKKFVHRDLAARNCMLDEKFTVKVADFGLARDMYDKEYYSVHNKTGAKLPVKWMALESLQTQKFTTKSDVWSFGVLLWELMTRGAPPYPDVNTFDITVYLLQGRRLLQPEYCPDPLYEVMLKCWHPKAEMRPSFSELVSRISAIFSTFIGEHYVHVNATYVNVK

[2] = system: MKN45; assay: Inhibition of cell viability (MTS), MKN45; format: cell-based; settings: 96 hours incubation
How it was run: (§1)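 Cells seeded at 2,000-7,500/well, attached ~24 h, then treated in duplicate with 1:2.5 serial dilutions at 0.5% final DMSO. Viability by MTS; EC50 from non-linear fit after background correction and normalisation to DMSO. MKN45 and EBC1 are cMET-dependent; A549 serves as negative control.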

[3] = system: EBC1; assay: Inhibition of cell viability (MTS), EBC1; format: cell-based; settings: 96 hours incubation
How it was run: as §1

[4] = system: A549; assay: Inhibition of cell viability (MTS), A549 (negative control line); format: cell-based; settings: A549 cells (negative control), 96 hours incubation
How it was run: as §1

[5] = Homo sapiens, MKN-45, 96 h, MKN45 cells
[6] = Homo sapiens, EBC-1, 96 h, EBC1 cells

SMILES | melting point | IC50 [1] | EC50 ([2]; MKN45 cells) | EC50 ([3]; EBC1 cells) | EC50 [4] | EC50 [2, 5] | EC50 [3, 6] | EC50 ([4]; Homo sapiens, A549, 96 h) | EC50 ([2]; Homo sapiens, MKN-45, MKN45 cells) | EC50 ([3]; Homo sapiens, EBC-1, EBC1 cells) | EC50 ([4]; Homo sapiens)
O=C(Nc1cn2nc(Sc3nnc4ccc(-c5cnn(CCO)c5)cn34)ccc2n1)C1CC1 (as salt: HCl) [Compound 32] | 182 to 184 °C |  |  |  |  |  |  |  |  |  | 
Cn1cc(-c2ccc3nnn(Cc4ccc5nc(NC(=O)C6CC6)cn5n4)c3c2)cn1 [13 (free base), N-(6-((6-(1-methyl-1H-pyrazol-4-yl)-1H-benzo[d][1,2,3]triazol-1-yl)methyl)imidazo[1,2-b]pyridazin-2-yl)cyclopropanecarboxamide] | 250.2 to 251.6 °C | 30 to 59 nM | < 30 nM | < 30 nM | > 50000 nM |  |  |  |  |  | 
CC(C)Oc1cccc(-c2ccc3nnc(C(F)(F)c4ccc5nc(NC(=O)C6CC6)cn5n4)n3c2)c1 [Compound 93, N-(6-(difluoro(6-(3-isopropoxyphenyl)-[1,2,4]triazolo[4,3-a]pyridin-3-yl)methyl)imidazo[1,2-b]pyridazin-2-yl)cyclopropanecarboxamide] |  | 60 to 100 nM |  |  |  | 30 to 59 nM | 30 to 59 nM | 8000 to 25000 nM |  |  | 
CN(C)c1cccc(-c2ccc3nnc(C(F)(F)c4ccc5nc(NC(=O)C6CC6)cn5n4)n3c2)c1 [Compound 96, N-(6-((6-(3-(dimethylamino)phenyl)-[1,2,4]triazolo[4,3-a]pyridin-3-yl)difluoromethyl)imidazo[1,2-b]pyridazin-2-yl)cyclopropanecarboxamide] |  | < 30 nM |  |  |  | < 30 nM | < 30 nM | 8000 to 25000 nM |  |  | 
Cc1cc(F)cc(-c2ccc3nnc(C(F)(F)c4ccc5nc(NC(=O)C6CC6)cn5n4)n3c2)c1 [Compound 97, N-(6-(difluoro(6-(3-fluoro-5-methylphenyl)-[1,2,4]triazolo[4,3-a]pyridin-3-yl)methyl)imidazo[1,2-b]pyridazin-2-yl)cyclopropanecarboxamide] |  | < 30 nM |  |  |  | < 30 nM | < 30 nM | > 50000 nM |  |  | 
CNC(=O)c1ccc(-c2ccc3nnc(C(F)(F)c4ccc5nc(NC(=O)C6CC6)cn5n4)n3c2)cc1F [Compound 98, 4-(3-((2-(cyclopropanecarboxamido)imidazo[1,2-b]pyridazin-6-yl)difluoromethyl)-[1,2,4]triazolo[4,3-a]pyridin-6-yl)-2-fluoro-N-methylbenzamide] |  | < 30 nM |  |  |  | < 30 nM | < 30 nM | > 50000 nM |  |  | 
Cn1cc(-c2ccc3nnc(C(F)(F)c4ccc5nc(N)cn5n4)n3c2)cn1 [Compound 99, 6-(difluoro(6-(1-methyl-1H-pyrazol-4-yl)-[1,2,4]triazolo[4,3-a]pyridin-3-yl)methyl)imidazo[1,2-b]pyridazin-2-amine] |  | 250 to 630 nM |  |  |  | 100 to 249 nM | 100 to 249 nM | > 50000 nM |  |  | 
COc1cccc(-c2ccc3nnc(Sc4ccc5nc(NC(=O)C6CC6)cn5n4)n3c2)n1 [Compound 101, N-(6-(6-(6-methoxypyridin-2-yl)-[1,2,4]triazolo[4,3-a]pyridin-3-ylthio)imidazo[1,2-b]pyridazin-2-yl)cyclopropanecarboxamide] |  | < 30 nM |  |  |  | 100 to 249 nM | 30 to 59 nM | > 50000 nM |  |  | 
COc1ccc(-c2ccc3nnc(Sc4ccc5nc(NC(=O)C6CC6)cn5n4)n3c2)cn1 [Compound 102, N-(6-(6-(6-methoxypyridin-3-yl)-[1,2,4]triazolo[4,3-a]pyridin-3-ylthio)imidazo[1,2-b]pyridazin-2-yl)cyclopropanecarboxamide] |  | 30 to 59 nM |  |  |  | 60 to 100 nM | 30 to 59 nM | > 50000 nM |  |  | 
O=C(Nc1cn2nc(Sc3nnc4ccc(-c5ccc(N6CCOCC6)nc5)cn34)ccc2n1)C1CC1 [Compound 103, N-(6-(6-(6-morpholinopyridin-3-yl)-[1,2,4]triazolo[4,3-a]pyridin-3-ylthio)imidazo[1,2-b]pyridazin-2-yl)cyclopropanecarboxamide] |  | < 30 nM |  |  |  | 30 to 59 nM | < 30 nM | > 50000 nM |  |  | 
N#Cc1cccc(-c2ccc3nnc(Sc4ccc5nc(NC(=O)C6CC6)cn5n4)n3c2)c1 [Compound 104, N-(6-(6-(3-cyanophenyl)-[1,2,4]triazolo[4,3-a]pyridin-3-ylthio)imidazo[1,2-b]pyridazin-2-yl)cyclopropanecarboxamide] |  | < 30 nM |  |  |  | < 30 nM | < 30 nM | > 50000 nM |  |  | 
N#Cc1cc(-c2ccc3nnc(Sc4ccc5nc(NC(=O)C6CC6)cn5n4)n3c2)ccc1OCCO [Compound 107, N-(6-(6-(3-cyano-4-(2-hydroxyethoxy)phenyl)-[1,2,4]triazolo[4,3-a]pyridin-3-ylthio)imidazo[1,2-b]pyridazin-2-yl)cyclopropanecarboxamide] |  | < 30 nM |  |  |  |  |  |  | 100 to 249 nM | 60 to 100 nM | > 50000 nM
N#Cc1cc(-c2ccc3nnc(Sc4ccc5nc(NC(=O)C6CC6)cn5n4)n3c2)cnc1O [Compound 108, N-(6-(6-(5-cyano-6-hydroxypyridin-3-yl)-[1,2,4]triazolo[4,3-a]pyridin-3-ylthio)imidazo[1,2-b]pyridazin-2-yl)cyclopropanecarboxamide] |  | 30 to 59 nM |  |  |  | 8000 to 25000 nM | 8000 to 25000 nM | > 50000 nM |  |  | 
O=C(Nc1cn2nc(Sc3nnc4ccc(-c5cnc(NCCCO)nc5)cn34)ccc2n1)C1CC1 [Compound 109, N-(6-(6-(2-(3-hydroxypropylamino)pyrimidin-5-yl)-[1,2,4]triazolo[4,3-a]pyridin-3-ylthio)imidazo[1,2-b]pyridazin-2-yl)cyclopropanecarboxamide] |  | 250 to 630 nM |  |  |  | 8000 to 25000 nM | 8000 to 25000 nM | 8000 to 25000 nM |  |  | 
O=C(Nc1cn2nc(Sc3nnc4ccc(-c5csc(N6CCOCC6)n5)cn34)ccc2n1)C1CC1 [Compound 110, N-(6-(6-(2-morpholinothiazol-4-yl)-[1,2,4]triazolo[4,3-a]pyridin-3-ylthio)imidazo[1,2-b]pyridazin-2-yl)cyclopropanecarboxamide] |  | 30 to 59 nM |  |  |  | 100 to 249 nM | 30 to 59 nM | > 50000 nM |  |  | 
O=C(Nc1cn2nc(Sc3nnc4ccc(-c5cccc(CCCO)c5)cn34)ccc2n1)C1CC1 [Compound 111, N-(6-(6-(3-(3-hydroxypropyl)phenyl)-[1,2,4]triazolo[4,3-a]pyridin-3-ylthio)imidazo[1,2-b]pyridazin-2-yl)cyclopropanecarboxamide] |  | < 30 nM |  |  |  | 100 to 249 nM | 30 to 59 nM | 8000 to 25000 nM |  |  | 
Nc1cn2nc(Sc3nnc4ccccn34)ccc2n1 [Compound 114, 6-([1,2,4]triazolo[4,3-a]pyridin-3-ylthio)imidazo[1,2-b]pyridazin-2-amine] |  | > 630 nM |  |  |  | > 630 nM | > 630 nM | > 50000 nM |  |  | 
